Source: DBAASP
Converted amounts (≈) assume the structure as drawn. One block for each molecule: values may come before it.

Columns and labels:
Assay in all cases: ≥ marks a high value that may be exact or a test limit, other limits are often not marked, values filed in µg/mL are converted to µM
[1] = test system: Micrococcus luteus ATCC 4698
[2] = test system: Escherichia coli MG1655
[3] = test system: Klebsiella pneumoniae ATCC 700603
[4] = test system: Pseudomonas aeruginosa ATCC 10145
[5] = test system: Staphylococcus aureus ATCC 25923
[6] = test system: Escherichia coli DH5alpha
[7] = test system: Staphylococcus xylosus
[8] = test system: Legionella pneumophila Lens
[9] = test system: Candida albicans ATCC 90028
[10] = test system: Escherichia coli ATCC 25922
[11] = test system: Escherichia coli KCTC 1682
[12] = test system: Pseudomonas aeruginosa ATCC 9027
[13] = test system: Pseudomonas aeruginosa KCTC 1637
[14] = test system: Staphylococcus aureus KCTC 1621
[15] = test system: Staphylococcus aureus USA 100
[16] = test system: Staphylococcus aureus USA 300
[17] = test system: Staphylococcus epidermidis KCTC 1917

- MIC [1]: 13 µM (≈ 14 µg/mL)
SMILES: CC(C)C[C@@H]1NC(=O)[C@H](CCCN=C(N)N)NC(=O)[C@H](CCCCN)NC(=O)[C@H](Cc2c[nH]c3ccccc23)NC(=O)CNC(=O)CNC(=O)[C@@H](N)CSSC[C@@H](C(=O)O)NC(=O)[C@H](CCCN=C(N)N)NC1=O [CGGWKRLRC]

- MIC [2]: 9.3 µM (≈ 24.4 µg/mL)
- MIC [3]: > 9.3 µM
- MIC [4]: 0.29 µM (≈ 0.761 µg/mL)
- MIC [5]: 2.32 µM (≈ 6.09 µg/mL)
SMILES: CC(C)C[C@H](NC(=O)[C@H](Cc1ccc(O)cc1)NC(=O)[C@H](Cc1cnc[nH]1)NC(=O)[C@H](CCCCN)NC(=O)[C@H](CC(C)C)NC(=O)[C@H](C)NC(=O)[C@H](CC(C)C)NC(=O)[C@H](CCCCN)NC(=O)CNC(=O)[C@@H](NC(=O)[C@@H](NC(=O)[C@H](CCCCN)NC(=O)[C@@H](NC(=O)[C@H](CCC(=O)O)NC(=O)[C@H](C)NC(=O)[C@H](CCCCN)NC(=O)[C@H](CCCCN)NC(=O)[C@H](CC(C)C)NC(=O)[C@H](CC(C)C)NC(=O)[C@@H](NC(=O)[C@H](CCCCN)NC(=O)[C@H](Cc1c[nH]c2ccccc12)NC(=O)CN)[C@@H](C)O)C(C)C)[C@@H](C)O)C(C)C)C(=O)O [GWKTLLKKAEVKTVGKLALKHYL]

- MIC [6]: 8 µM (≈ 10.8 µg/mL)
- MIC [7]: 0.5 µM (≈ 0.676 µg/mL)
SMILES: CC[C@H](C)[C@H](NC(=O)[C@H](CCCCN)NC(=O)[C@H](CCCCN)NC(=O)[C@@H](N)CCCCN)C(=O)N[C@H](C(=O)N[C@H](C(=O)N[C@H](C(=O)N[C@H](C(=O)N[C@@H](CCCCN)C(=O)N[C@@H](CCCCN)C(=O)N[C@@H](CCCCN)C(=O)O)[C@@H](C)CC)[C@@H](C)CC)[C@@H](C)CC)[C@@H](C)CC [KKKIIIIIKKK]

- MIC [6]: ≥ 64 µM
- MIC [7]: 8 µM (≈ 10.3 µg/mL)
SMILES: CC(C)[C@H](NC(=O)[C@H](CCCCN)NC(=O)[C@H](CCCCN)NC(=O)[C@@H](N)CCCCN)C(=O)N[C@H](C(=O)N[C@H](C(=O)N[C@H](C(=O)N[C@H](C(=O)N[C@@H](CCCCN)C(=O)N[C@@H](CCCCN)C(=O)N[C@@H](CCCCN)C(=O)O)C(C)C)C(C)C)C(C)C)C(C)C [KKKVVVVVKKK]

- MIC [6]: ≥ 64 µM
- MIC [7]: ≥ 64 µM
SMILES: CC[C@H](C)[C@H](NC(=O)[C@@H](N)CC(C)C)C(=O)N[C@@H](CCCCN)C(=O)N[C@@H](CCCN=C(N)N)C(=O)N[C@@H](CCCCN)C(=O)O [LIKRK]

- MIC [8]: 1.27 µM (≈ 3.12 µg/mL)
SMILES: CC[C@H](C)[C@H](NC(=O)[C@H](CC(C)C)NC(=O)CNC(=O)[C@H](CCCCN)NC(=O)[C@@H](NC(=O)[C@@H](NC(=O)[C@H](CCC(=O)O)NC(=O)[C@@H](NC(=O)[C@@H](NC(=O)[C@H](CCCCN)NC(=O)[C@H](C)NC(=O)[C@@H](NC(=O)[C@@H](NC(=O)[C@H](CC(=O)O)NC(=O)[C@H](C)NC(=O)[C@@H](N)CCSC)C(C)C)[C@@H](C)CC)[C@@H](C)CC)C(C)C)[C@@H](C)CC)C(C)C)C(=O)N[C@@H](CC(=O)O)C(=O)N[C@@H](CCC(N)=O)C(=O)N[C@@H](Cc1ccccc1)C(=O)N[C@H](C(=O)N[C@@H](CCC(N)=O)C(=O)N[C@@H](CCCCN)C(=O)O)[C@@H](C)O [MADVIAKIVEIVKGLIDQFTQK]

- MIC [6]: 8 µM (≈ 14.7 µg/mL)
- MIC [7]: 0.5 µM (≈ 0.917 µg/mL)
SMILES: CC[C@H](C)[C@H](NC(=O)[C@H](CC(C)C)NC(=O)[C@@H](NC(=O)[C@H](CC(C)C)NC(=O)[C@@H](NC(=O)[C@H](CC(C)C)NC(=O)[C@H](CCCCN)NC(=O)[C@H](CCCN=C(N)N)NC(=O)[C@H](CCCCN)NC(=O)[C@@H](N)CCCN=C(N)N)[C@@H](C)CC)[C@@H](C)CC)C(=O)N[C@@H](CCCCN)C(=O)N[C@@H](CCCN=C(N)N)C(=O)N[C@@H](CCCCN)C(=O)N[C@@H](CCCN=C(N)N)C(=O)O [RKRKLILILIKRKR]

- MIC [9]: ≥ 100 µM
- MIC [10]: 7.18 µM (≈ 7.49 µg/mL)
- MIC [11]: 3.83 µM (≈ 4 µg/mL)
- MIC [12]: > 100 µM
- MIC [13]: 15.3 µM (≈ 16 µg/mL)
- MIC [5]: 7.18 µM (≈ 7.49 µg/mL)
- MIC [14]: 7.65 µM (≈ 7.99 µg/mL)
- MIC [15]: 25 µM (≈ 26.1 µg/mL)
- MIC [16]: 25 µM (≈ 26.1 µg/mL)
- MIC [17]: 7.65 µM (≈ 7.99 µg/mL)
SMILES: NC(=O)[C@H](CCCN=C(N)N)NC(=O)[C@H](Cc1c[nH]c2ccccc12)NC(=O)[C@H](CCCN=C(N)N)NC(=O)[C@H](Cc1c[nH]c2ccccc12)NC(=O)[C@H](CCCN=C(N)N)NC(=O)[C@@H](N)Cc1c[nH]c2ccccc12 [WRWRWR]
